Reference: the NIST ThermoML archive (doi:10.1021/je034127q)
± gives the expanded uncertainty stated by the source.

Conditions: Liquid

Critical pressure | Critical temperature | SMILES
3020 ± 250 kPa | 507.4 ± 2.5 K | CCCCCC [hexane]
7420 ± 250 kPa | 304.5 ± 2.5 K | O=C=O [carbon dioxide]
8120 ± 250 kPa | 512.6 ± 2.5 K | CO [methanol]
